Results from PubChem BioAssay (NCI).
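Step 1: Grow cells in 96-well plates. Step 2: Expose to compound for 48 hours at 5 concentrations. Step 3: Interpolate endpoints linearly; if unreached, use highest concentration. GI50 = concentration required for 50% inhibition of growth. Definition used: TGI = concentration required for complete inhibition of growth.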

Assays:
Assay in all cases: growth of human tumour cells (NCI), 48 h
OVCAR-5 ovarian = tested on: OVCAR-5 ovarian
HOP-92 NSCLC = tested on: HOP-92 NSCLC
IGROV1 ovarian = tested on: IGROV1 ovarian
MOLT-4 leukemia = tested on: MOLT-4 leukemia
HL-60(TB) leukemia = tested on: HL-60(TB) leukemia
SNB-75 CNS = tested on: SNB-75 CNS
RPMI-8226 leukemia = tested on: RPMI-8226 leukemia
SF-295 CNS = tested on: SF-295 CNS
DU-145 prostate = tested on: DU-145 prostate
NCI/ADR-RES ovarian = tested on: NCI/ADR-RES ovarian

SMILES	TGI (OVCAR-5 ovarian) [µM]	TGI (HOP-92 NSCLC) [µM]	TGI (IGROV1 ovarian) [µM]	TGI (MOLT-4 leukemia) [µM]	TGI (HL-60(TB) leukemia) [µM]	TGI (SNB-75 CNS) [µM]	TGI (RPMI-8226 leukemia) [µM]	TGI (SF-295 CNS) [µM]	TGI (DU-145 prostate) [µM]	TGI (NCI/ADR-RES ovarian) [µM]	GI50 (RPMI-8226 leukemia) [µM]	GI50 (NCI/ADR-RES ovarian) [µM]
COc1ccc(C2NC3=C(CCCC3)N2)cc1	> 100	> 100	> 100	> 100	66	> 100	> 100	> 100				
Cc1nc(-n2nc(-c3ccccc3)cc2-c2ccccc2)sc1C(/C=C/c1ccc([N+](=O)[O-])cc1)=N/NC(N)=S	> 100	> 100	> 100	81.4	25.6	> 100	45	> 100				
Nc1ccn(CCCC(c2ccccc2)P(=O)(O)O)c(=O)n1 (stereo not given)	> 100	> 100	> 100		> 100	> 100	> 100	> 100				
COC(=O)CC1NC(=O)C1C(C)(OC)OC (stereo not given)			> 100	> 100	> 100	> 100	> 100	> 100				
Cn1c(=O)oc2cc(C(=S)N3CCCCC3)ccc21	> 100		> 100	> 100	> 100	> 100	> 100	> 100	> 100	> 100		
O=C(CC(=O)N1N=C(c2ccccc2)C(N=Nc2ccccc2Cl)C1=O)Nc1ccccc1Cl (stereo not given)	> 100		> 100	> 100	25.9	49.9	57.2	65.3				
CN(C)CCNC(=O)c1cccc2[nH]c(-c3ccc(Cl)cc3)nc12	26.4	17	25.8	5.5	12	15.3	8.78	21.3		21		
CCOC(=O)C1=C(O)c2ccc(OC)cc2C(=O)C1=O	> 100	> 100	> 100	> 100	> 100	> 100	> 100	> 100				
N/C(=N/N=C/c1cccc(F)c1)NO	> 100	> 100	> 100	> 100	93.5	> 100	> 100	> 100				
Cc1cc(C)c(C(=O)/C(=C/c2ccccc2)c2ccccc2)c(C)c1		> 100	> 100	> 100	90.6	> 100	> 100	> 100				
CCSc1[nH]c(NC(=NC(C)C)NC(=O)c2ccccc2)c(C(N)=O)c1C(N)=O		> 10	> 10	> 10	> 10	> 10	> 10	> 10	> 10			
CC(C)OC(=O)c1cccnc1/C=N/O	> 100		> 100	> 100	> 100	> 100	> 100	> 100				
COc1cc(CC(=O)c2cc3c(cc2-c2ccccc2)OCO3)cc(OC)c1OC	> 100	42	> 100	> 100	> 100	35.8		> 100				
c1ccc(Sc2nc(Sc3ccccc3)nc(Sc3ccccc3)n2)cc1	> 100			> 100	> 100		> 100	> 100	47.1			
CNC(=O)c1cc(Oc2cccc3nc(NC(=O)Nc4ccc(F)cc4F)ccc23)ccn1							> 50			> 50	2.2	1.6
Brc1ccc(C[N+]23CN4CN(CN(C4)C2)C3)cc1			> 100	69	58.2	> 100	59.5	> 100				
COc1ccc(N2C(=O)C3C=CC(n4[nH]c(=O)n(Cc5ccccc5)c4=O)CC3C2=O)cc1 (stereo not given)	> 100	> 100	> 100	> 100	> 100	> 100	> 100	> 100				
O=C(NCCC1CN(S(=O)(=O)C(F)(F)F)c2ccccc21)OCc1ccccc1 (stereo not given)	> 100	> 100	> 100	> 100			> 100	> 100	> 100	> 100		
O=C(CSc1nnc(-c2ccc(N=Cc3ccc(Cl)cc3)cc2)o1)Nc1cccc([N+](=O)[O-])c1				> 100	> 100	> 100	> 100	> 100				
N#CC(C#N)C1CN2CCC1CC2 (stereo not given)	> 100		> 100	> 100	> 100	> 100	> 100	> 100	> 100	> 100		
